Where a name gives a salt, the structure may show the parent alone. Read-outs that look alike come from different tables or passages of the source.

For data set [1], the target named is NaV1.6 (Homo sapiens (Human), UniProt Q9UQD0). The data set is described as follows: Sodium Influx Assay (Flux), NaV1.6.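 Also: Tetracycline-induced cells, compounds applied for one hour at room temperature with modulators holding channels open, IC50 from percent inhibition of sodium influx.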 To be noted: Trex HEK293 cells, ANG2 dye, inactivated state. It counts as cell-based.
Data set [2] has as its target NaV1.1 (Homo sapiens (Human), UniProt P35498). The data set can be described thus: Sodium Influx Assay (Flux), NaV1.1.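 Also: channels co-expressed with human β1 subunit and held open by modulators, cells exposed to compounds for one hour at room temperature, IC50 from percent inhibition of influx.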 Format: cell-based. As to conditions: Trex HEK293 cells, ANG2 dye, inactivated state.
Data set [3] addresses NaV1.5 (Homo sapiens (Human), UniProt Q14524). The data set is described as follows: Sodium Influx Assay (Flux), NaV1.5.
[4] abbreviates: read-out: Flux NaV1.5 IC50, Trex HEK293 cells, ANG2 dye, inactivated state.

Sequence of NaV1.5 (Q14524 other isoform, or with tags, fused parts or gaps): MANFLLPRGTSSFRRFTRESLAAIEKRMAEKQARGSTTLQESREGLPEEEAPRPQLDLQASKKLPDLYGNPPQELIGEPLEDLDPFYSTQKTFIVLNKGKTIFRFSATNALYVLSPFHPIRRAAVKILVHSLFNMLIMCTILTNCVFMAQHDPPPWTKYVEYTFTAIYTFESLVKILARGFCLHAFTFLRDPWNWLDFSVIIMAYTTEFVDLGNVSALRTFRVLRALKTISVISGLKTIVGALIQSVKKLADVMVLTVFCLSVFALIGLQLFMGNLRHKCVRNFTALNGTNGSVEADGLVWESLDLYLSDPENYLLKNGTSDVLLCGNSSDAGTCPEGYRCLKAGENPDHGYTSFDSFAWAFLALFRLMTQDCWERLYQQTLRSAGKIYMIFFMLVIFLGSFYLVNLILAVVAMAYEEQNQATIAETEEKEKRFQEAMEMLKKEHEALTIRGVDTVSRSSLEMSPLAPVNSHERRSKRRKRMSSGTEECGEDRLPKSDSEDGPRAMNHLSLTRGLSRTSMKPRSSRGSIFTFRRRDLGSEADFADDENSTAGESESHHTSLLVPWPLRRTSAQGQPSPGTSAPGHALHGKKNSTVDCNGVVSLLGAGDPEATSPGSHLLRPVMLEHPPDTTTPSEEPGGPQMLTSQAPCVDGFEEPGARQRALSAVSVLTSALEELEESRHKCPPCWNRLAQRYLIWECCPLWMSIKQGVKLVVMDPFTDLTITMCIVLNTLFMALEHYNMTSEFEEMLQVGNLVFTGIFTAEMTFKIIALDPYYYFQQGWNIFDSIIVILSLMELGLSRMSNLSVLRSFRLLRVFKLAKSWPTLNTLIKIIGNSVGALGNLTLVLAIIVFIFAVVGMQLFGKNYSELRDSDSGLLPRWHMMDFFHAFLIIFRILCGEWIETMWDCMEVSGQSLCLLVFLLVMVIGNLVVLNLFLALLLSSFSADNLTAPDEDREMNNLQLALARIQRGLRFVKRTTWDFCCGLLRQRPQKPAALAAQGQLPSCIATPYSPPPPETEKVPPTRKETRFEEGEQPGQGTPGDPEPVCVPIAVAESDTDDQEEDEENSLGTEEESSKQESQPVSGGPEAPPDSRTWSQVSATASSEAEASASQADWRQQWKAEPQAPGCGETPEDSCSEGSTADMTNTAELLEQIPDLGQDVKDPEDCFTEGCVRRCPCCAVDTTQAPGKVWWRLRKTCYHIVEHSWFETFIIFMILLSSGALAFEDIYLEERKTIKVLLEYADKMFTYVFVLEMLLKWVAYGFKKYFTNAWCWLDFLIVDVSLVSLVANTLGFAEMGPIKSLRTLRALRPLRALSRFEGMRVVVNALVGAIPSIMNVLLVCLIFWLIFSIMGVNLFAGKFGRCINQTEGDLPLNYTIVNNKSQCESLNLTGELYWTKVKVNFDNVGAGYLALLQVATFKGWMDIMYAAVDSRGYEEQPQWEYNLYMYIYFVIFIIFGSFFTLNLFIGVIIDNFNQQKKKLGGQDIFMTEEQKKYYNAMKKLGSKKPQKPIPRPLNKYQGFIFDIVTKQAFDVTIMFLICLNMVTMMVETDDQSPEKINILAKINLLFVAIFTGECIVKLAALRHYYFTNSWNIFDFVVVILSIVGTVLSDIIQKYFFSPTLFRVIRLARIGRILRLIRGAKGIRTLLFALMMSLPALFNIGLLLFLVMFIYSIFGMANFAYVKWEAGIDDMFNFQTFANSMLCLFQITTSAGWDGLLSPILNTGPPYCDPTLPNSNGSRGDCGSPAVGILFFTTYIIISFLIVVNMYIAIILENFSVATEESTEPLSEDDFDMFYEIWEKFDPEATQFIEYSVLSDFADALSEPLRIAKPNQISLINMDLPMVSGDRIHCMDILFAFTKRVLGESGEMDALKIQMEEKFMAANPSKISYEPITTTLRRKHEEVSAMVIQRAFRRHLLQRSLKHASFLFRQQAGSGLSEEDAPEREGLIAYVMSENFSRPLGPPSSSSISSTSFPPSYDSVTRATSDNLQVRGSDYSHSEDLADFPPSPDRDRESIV

In general, IC50 refers to the midpoint of a concentration-inhibition curve. For `C[C@H](Sc1cc(F)c(S(=O)(=O)Nc2nccs2)cc1Cl)c1ccccc1` [Example 125, (S)-5-chloro-2-fluoro-4-((1-phenylethyl)thio)-N-(thiazol-2-yl)benzenesulfonamide], the IC50 in data set [1] was determined as 1730 nM; in data set [2], 3.26 µM; in data set [3] (setting [4]) it was 3.35 µM.

For `CC[C@H](Nc1cc(F)c(S(=O)(=O)Nc2nccs2)cc1C)c1ccccc1` [Example 126, (S)-2-fluoro-5-methyl-4-((1-phenylpropyl)amino)-N-(thiazol-2-yl)benzenesulfonamide], the figures for the IC50 in data set [1], in data set [2] and in data set [3] were 114 nM, 0.147 µM and 11.4 µM, respectively.

For `O=S(=O)(Nc1cscn1)c1cc(Cl)c(NCc2c(F)cccc2CN2CC3(CCC3)C2)cc1F` [Example 128, 4-((2-((2-azaspiro[3.3]heptan-2-yl)methyl)-6-fluorobenzyl)amino)-5-chloro-2-fluoro-N-(thiazol-4-yl)benzenesulfonamide], the IC50 in data set [1] came out at 208 nM; in data set [2] it was 5.37 µM; in data set [3], 6.72 µM.

On to `O=S(=O)(Nc1cscn1)c1cc(Cl)c(NCc2ccc(F)cc2CN2CCC2)cc1F` [Example 132, 4-((2-(azetidin-1-ylmethyl)-4-fluorobenzyl)amino)-5-chloro-2-fluoro-N-(thiazol-4-yl)benzenesulfonamide], for which the half-inhibitory concentration (IC50) in data set [1] stood at 5110 nM; in data set [2], 7.87 µM; in data set [3] (setting [4]) it was 24.7 µM.

As to `O=S(=O)(Nc1ncccn1)c1c(F)cc(NCc2c(F)cccc2CN2CCC2)cc1F` [Example 145, 4-((2-(azetidin-1-ylmethyl)-6-fluorobenzyl)amino)-2,6-difluoro-N-(pyrimidin-2-yl)benzenesulfonamide 2,2,2-trifluoroacetate], the concentration for half-maximal inhibition (IC50) came out at 467 nM in data set [1], 30 µM in data set [2] and 30 µM in data set [3] (setting [4]).

As to `C[C@H](Nc1cc(F)c(S(=O)(=O)Nc2cscn2)cc1Cl)c1cc(C2CC2)ccc1F` [Example 146, (S)-5-chloro-4-((1-(5-cyclopropyl-2-fluorophenyl)ethyl)amino)-2-fluoro-N-(thiazol-4-yl)benzenesulfonamide], the results for the half-maximal inhibitory concentration (IC50) in data set [1], in data set [2] and in data set [3] (setting [4]) were 4120 nM, 5.57 µM and 9.84 µM, respectively.

With `Cc1ccc(F)cc1CNc1cc(F)c(S(=O)(=O)Nc2cscn2)cc1Cl` [Example 147, 5-chloro-2-fluoro-4-((5-fluoro-2-methylbenzyl)amino)-N-(thiazol-4-yl)benzenesulfonamide], the values for the IC50 in data set [1], in data set [2] and in data set [3] (setting [4]) were 3310 nM, 3.43 µM and 2.72 µM, respectively.

As for `C[C@H](Nc1ccc(S(=O)(=O)Nc2cscn2)c(F)c1Cl)c1c(F)cccc1Cl` [Example 148, (S)-3-chloro-4-((1-(2-chloro-6-fluorophenyl)ethyl)amino)-2-fluoro-N-(thiazol-4-yl)benzenesulfonamide], the IC50 came out at 1250 nM in data set [1], 2.95 µM in data set [2] and 4.84 µM in data set [3] (setting [4]).

Take `C[C@H](Nc1ccc(S(=O)(=O)Nc2cscn2)c(F)c1Cl)c1c(F)cccc1F` [Example 149, (S)-3-chloro-4-((1-(2,6-difluorophenyl)ethyl)amino)-2-fluoro-N-(thiazol-4-yl)benzenesulfonamide]: the figures for the concentration for half-maximal inhibition (IC50) in data set [1], in data set [2] and in data set [3] (setting [4]) were 780 nM, 3.36 µM and 6.39 µM, respectively.

In the case of `O=S(=O)(Nc1cscn1)c1cc(Cl)c(OCc2c(F)ccc(F)c2CN2CCC2)cc1F` [Example 150, 4-((2-(azetidin-1-ylmethyl)-3,6-difluorobenzyl)oxy)-5-chloro-2-fluoro-N-(thiazol-4-yl)benzenesulfonamide], the results for the IC50 in data set [1], in data set [2] and in data set [3] (setting [4]) were 2820 nM, 30 µM and 8.66 µM, respectively.

In the case of `CN1CCN(Cc2cccc(F)c2CNc2cc(F)c(S(=O)(=O)Nc3cscn3)c(F)c2)CC1` [Example 151, 2,6-difluoro-4-((2-fluoro-6-((4-methylpiperazin-1-yl)methyl)-benzyl)amino)-N-(thiazol-4-yl)benzenesulfonamide formate], the IC50 in data set [1] is 2100 nM; in data set [2], 20.5 µM; in data set [3] (setting [4]), 30 µM.

Consider `CCOC1(C)CN(Cc2cccc(F)c2CNc2cc(F)c(S(=O)(=O)Nc3cscn3)c(F)c2)C1` [Example 152, 4-((2-((3-ethoxy-3-methylazetidin-1-yl)methyl)-6-fluorobenzyl)amino)-2,6-difluoro-N-(thiazol-4-yl)benzenesulfonamide formate], for which the IC50 in data set [1] came to 160 nM; in data set [2], 10.3 µM; in data set [3] (setting [4]) it was 19 µM.

For `COC[C@H]1CCCN1Cc1cccc(F)c1CNc1cc(F)c(S(=O)(=O)Nc2cscn2)c(F)c1` [Example 154, (R)-2,6-difluoro-4-((2-fluoro-6-((2-(methoxymethyl)pyrrolidin-1-yl)methyl)benzyl)amino)-N-(thiazol-4-yl)benzenesulfonamide formate], the half-maximal inhibitory concentration (IC50) in data set [1] was 451 nM; in data set [2], 28.8 µM; in data set [3] (setting [4]), 30 µM.

Consider `O=S(=O)(Nc1cscn1)c1c(F)cc(NCc2c(F)cccc2CN2CCC3(CCO3)C2)cc1F` (stereo not drawn) [Example 155, 4-((2-((1-oxa-6-azaspiro[3.4]octan-6-yl)methyl)-6-fluorobenzyl)amino)-2,6-difluoro-N-(thiazol-4-yl)benzenesulfonamide formate], for which the IC50 worked out at 250 nM in data set [1], 30 µM in data set [2] and 30 µM in data set [3] (setting [4]).

Take `O=S(=O)(Nc1cscn1)c1c(F)cc(NCc2c(F)cccc2CN2CCC23COC3)cc1F` [Example 157, 4-((2-((6-oxa-1-azaspiro[3.3]heptan-1-yl)methyl)-6-fluorobenzyl)amino)-2,6-difluoro-N-(thiazol-4-yl)benzenesulfonamide formate]: the IC50 in data set [1] came to 2360 nM; in data set [2], 30 µM; in data set [3] (setting [4]), 30 µM.

Take `O=S(=O)(Nc1cscn1)c1c(F)cc(NCc2c(F)cccc2CN2CCC3(CCC3)C2)cc1F` [Example 159, 4-((2-((6-azaspiro[3.4]octan-6-yl)methyl)-6-fluorobenzyl)amino)-2,6-difluoro-N-(thiazol-4-yl)benzenesulfonamide formate]: the half-maximal inhibitory concentration (IC50) came to 153 nM in data set [1], 9.21 µM in data set [2] and 11.8 µM in data set [3].

Turning to `O=S(=O)(Nc1cscn1)c1c(F)cc(NCc2c(F)cccc2CN2CC3(C2)CC(F)(F)C3)cc1F` [Example 160, 4-((2-((6,6-difluoro-2-azaspiro[3.3]heptan-2-yl)methyl)-6-fluorobenzyl)amino)-2,6-difluoro-N-(thiazol-4-yl)benzenesulfonamide formate], the IC50 was 64 nM in data set [1], 6.51 µM in data set [2] and 23 µM in data set [3].

`COCCN(C)Cc1cccc(F)c1CNc1cc(F)c(S(=O)(=O)Nc2cscn2)c(F)c1` [Example 162, 2,6-difluoro-4-((2-fluoro-6-(((2-methoxyethyl)(methyl)amino)methyl)benzyl)amino)-N-(thiazol-4-yl)benzenesulfonamide formate]: the IC50 came to 461 nM in data set [1], 30 µM in data set [2] and 11 µM in data set [3] (setting [4]).

Regarding `O=S(=O)(Nc1cscn1)c1c(F)cc(NCc2c(F)cccc2CN2CC3(C2)CC3(F)F)cc1F` [Example 163, 4-((2-((1,1-difluoro-5-azaspiro[2.3]hexan-5-yl)methyl)-6-fluorobenzyl)amino)-2,6-difluoro-N-(thiazol-4-yl)benzenesulfonamide], the values for the IC50 in data set [1], in data set [2] and in data set [3] (setting [4]) were 288 nM, 6.35 µM and 30 µM, respectively.

Regarding `CC1CN(Cc2cccc(F)c2CNc2cc(F)c(S(=O)(=O)Nc3cscn3)c(F)c2)C1` [Example 164, 2,6-difluoro-4-((2-fluoro-6-((3-methylazetidin-1-yl)methyl)benzyl)amino)-N-(thiazol-4-yl)benzenesulfonamide formate], the values for the half-inhibitory concentration (IC50) in data set [1], in data set [2] and in data set [3] (setting [4]) were 84 nM, 22.8 µM and 20.3 µM, respectively.

In the case of `CN(C)Cc1cccc(F)c1CNc1cc(F)c(S(=O)(=O)Nc2cscn2)c(F)c1` [Example 165, 4-((2-((dimethylamino)methyl)-6-fluorobenzyl)amino)-2,6-difluoro-N-(thiazol-4-yl)benzenesulfonamide formate], the half-inhibitory concentration (IC50) in data set [1] amounted to 361 nM; in data set [2], 14.9 µM; in data set [3], 20.8 µM.

On to `CN(Cc1cccc(F)c1CNc1cc(F)c(S(=O)(=O)Nc2cscn2)c(F)c1)CC1(C)COC1` [Example 167, 2,6-difluoro-4-((2-fluoro-6-((methyl((3-methyloxetan-3-yl)methyl)amino)methyl)benzyl)amino)-N-(thiazol-4-yl)benzenesulfonamide formate], for which the half-maximal inhibitory concentration (IC50) is 405 nM in data set [1], at least 30 µM in data set [2] and at least 30 µM in data set [3].

Regarding `CC1(C)CN(Cc2cccc(F)c2CNc2cc(F)c(S(=O)(=O)Nc3cscn3)c(F)c2)C1` [Example 170, 4-((2-((3,3-dimethylazetidin-1-yl)methyl)-6-fluorobenzyl)amino)-2,6-difluoro-N-(thiazol-4-yl)benzenesulfonamide], the IC50 came to 176 nM in data set [1], 24.7 µM in data set [2] and 15.2 µM in data set [3].

Take `O=S(=O)(Nc1cscn1)c1c(F)cc(NCc2c(F)cccc2CN2CCC23CCC3)cc1F` [Example 173, 4-((2-((1-azaspiro[3.3]heptan-1-yl)methyl)-6-fluorobenzyl)amino)-2,6-difluoro-N-(thiazol-4-yl)benzenesulfonamide formate]: the IC50 was found to be 50 nM in data set [1], 7.22 µM in data set [2] and 19.5 µM in data set [3] (setting [4]).

Take `O=S(=O)(Nc1cscn1)c1c(F)cc(NCc2c(F)cccc2CN2CC3CC3C2)cc1F` (stereo not drawn) [Example 174, 4-((2-((3-azabicyclo[3.1.0]hexan-3-yl)methyl)-6-fluorobenzyl)amino)-2,6-difluoro-N-(thiazol-4-yl)benzenesulfonamide]: the IC50 in data set [1] turned out to be 35 nM; in data set [2], 30 µM; in data set [3] (setting [4]), 30 µM.

(Values after patent US11174268B2, “Benzenesulfonamide compouds and their use as therapeutic agents” (Xenon Pharmaceuticals Inc., priority 2016, dated 2021).)
